Results published in patent US20140200215A1, “LYSOPHOSPHATIDIC ACID RECEPTOR ANTAGONISTS” (INTERMUNE, INC., priority 2013, published 2014).
pEC50, pIC50: −log10 of the molar value.

How the values were obtained:
Assay type in all cases: cell-based
Human LPA1 [1] = target: T1, Human LPA1 (Homo sapiens, UniProt Q92633); assay: Beta-Arrestin based assay for human LPA1R antagonists (PathHunter); conditions: CHO cells expressing ProLink tagged human LPA1R; antagonist mode, 0.5 micromolar LPA
Description: Beta-Arrestin Based Assays for Human LPA1R Antagonists and Agonists
A CHO cell line stably expressing the ProLink™ tagged human LPA1R was obtained from DiscoverX Inc, Fremont, Calif. In this system, β-Arrestin was fused to an N-terminal deletion mutant of β-galactosidase (termed the enzyme acceptor or EA), the human LPA1R was fused to a smaller (42 amino acids) weakly complementing fragment termed ProLink™. […] Cell handling and assays were performed according to protocols specified in the PathHunter® assays kits (DiscoverX, Fremont, Calif.). Assays were performed in quadruplicate in white 384 well plates. End point luminescence data were plotted and fit to a 4 parameter logistic function to obtain IC50 values. For antagonist assays, an […] concentration of agonist (LPA) equal to 0.5 micromolar was used.

[2] = tested on: primary fibroblasts (including lung, dermal), HFL-1, 3T3 and CHO cells expressing LPA1R; assay: LPA1 migration assay (Oris cell migration); conditions: inhibition of cell migration in response to chemoattractant (LPA, serum)
Text: Migration of primary fibroblasts (including lung, dermal), HFL-1, 3T3 and CHO cells expressing LPA1R were monitored using the Oris™ assay (Platypus Technologies, Madison, Wis.). These cells were dye (Cell Tracker Green™) loaded and serum starved for 12-24 hrs. In response to chemoattractants such as LPA and serum, the cells migrated inward in to the exclusion (detection) zone. After fixing, fluorescent cells in the detection zone were counted using a high content reader. The ability of LPA1 antagonists to inhibit cell migration is quantified by plotting cell number vs. compound concentration and curve fitting the resulting dose-response curve to a 4 parameter logistic function.

Human LPA1 [3] = target: T1, Human LPA1; assay: LPA1 calcium flux assay; set-up: the full-length cDNA for human LPA1 is obtained by PCR of the reverse transcription reaction; expressed in transfected cells; conditions: human LPA1 expressing CHO cells, stimulated with 10 nM LPA; read-out: Ca Flux LPA1 IC50
Description: Establishment of a CHO Cell Line Stably Expressing Human LPA1
A 1.1 kb cDNA encoding the human LPA1 receptor is cloned from human lung. Human lung RNA (Clontech Laboratories, Inc. USA) is reverse transcribed using the RETROscript kit (Ambion, Inc.) and the full-length cDNA for human LPA1 is obtained by PCR of the reverse transcription reaction. The nucleotide sequence of the cloned human LPA1 is determined by sequencing and is confirmed to be identical to the published human LPA1 sequence (An et al. Biochem. Biophys. Res. Commun. 231:619 (1997). The cDNA is cloned into the pCDNA5 pcDNA5/FRT expression plasmid and is transfected in CHO cells using lipofectamine 2000 (Invitrogen Corp., USA). Clones stably expressing human LPA1 are selected using hygromycin and identified as cells that show Ca-influx in response to LPA.
LPA1 and LPA3 Calcium Flux Assays
Human LPA1 or LPA3 expressing CHO cells were seeded at 20,000-45,000 cells per well in a 96-well poly-D-lysine coated plate one or two days before the assay. Prior to the assay, the cells were washed once with PBS and then cultured in serum-free media overnight. On the day of the assay, a calcium indicator dye (Calcium 4, Molecular Devices) in assay buffer (HBSS with Ca^2+ and Mg^2+ and containing 20 mM Hepes and 0.3% fatty-acid free human serum albumin) was added to each well and incubation continued for 1 hour at 37° C. 10 μl of test compounds in 2.5% DMSO were added to the cells and incubation continued at room temperature for 30 minutes. Cells were then stimulated by the addition of 10 nM LPA and intracellular Ca^2+ measured using the Flexstation 3 (Molecular Devices). IC50, were determined using Graphpad prism analysis of drug titration curves.

T1 sequence (Q92633 whole entry): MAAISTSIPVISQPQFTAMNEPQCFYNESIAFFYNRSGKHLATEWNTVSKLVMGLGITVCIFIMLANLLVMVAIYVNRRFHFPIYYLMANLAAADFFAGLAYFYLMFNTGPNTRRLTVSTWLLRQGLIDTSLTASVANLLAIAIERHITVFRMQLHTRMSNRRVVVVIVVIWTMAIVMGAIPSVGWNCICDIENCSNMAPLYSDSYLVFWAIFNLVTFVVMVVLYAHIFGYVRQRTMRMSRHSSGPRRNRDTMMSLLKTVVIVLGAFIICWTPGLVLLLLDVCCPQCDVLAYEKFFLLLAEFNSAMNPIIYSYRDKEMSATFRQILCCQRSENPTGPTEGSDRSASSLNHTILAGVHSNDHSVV

C[C@@H](OC(=O)Nc1c(-c2ccc(-c3ccc(C4(C(=O)O)CCOCC4)cc3)cc2)ncn1C)c1ccccc1 [IT027]
pEC50 (Human LPA1 [1]): 6.30 to 7.30 | pEC50 [2]: < 6.30 | pIC50 (Human LPA1 [3]): 6.30 to 7.30

Cc1noc(-c2ccc(-c3ccc(C4(C(=O)O)CCOCC4)cc3)c(F)c2)c1NC(=O)O[C@H](C)c1ccccc1 [IT028]
pEC50 (Human LPA1 [1]): > 7.30 | pEC50 [2]: > 7.30 | pIC50 (Human LPA1 [3]): > 7.30

Cc1noc(-c2cc(F)c(-c3ccc(C4(C(=O)O)CCOCC4)cc3)cc2F)c1NC(=O)O[C@H](C)c1ccccc1 [IT029]
pEC50 (Human LPA1 [1]): > 7.30 | pEC50 [2]: 6.30 to 7.30 | pIC50 (Human LPA1 [3]): 6.30 to 7.30

Cc1noc(-c2cc(F)c(-c3ccc(C4(C(=O)O)CCOCC4)cc3)cc2F)c1NC(=O)O[C@H](C)c1ccccc1 [IT030]
pEC50 (Human LPA1 [1]): < 6.30 | pEC50 [2]: < 6.30 | pIC50 (Human LPA1 [3]): < 6.30

C[C@@H](OC(=O)Nc1c(-c2ccc(-c3ccc(C4(C(=O)O)CC4)cc3)cc2)sc2ncccc12)c1ccccc1 [IT031]
pEC50 (Human LPA1 [1]): > 7.30 | pEC50 [2]: 6.30 to 7.30 | pIC50 (Human LPA1 [3]): 6.30 to 7.30

C[C@@H](OC(=O)Nc1c(-c2ccc(-c3ccc(C4(C(=O)O)CC4)cc3)cc2)nc2cnccn12)c1ccccc1 [IT032]
pEC50 (Human LPA1 [1]): > 7.30 | pEC50 [2]: 6.30 to 7.30 | pIC50 (Human LPA1 [3]): 6.30 to 7.30

C[C@@H](OC(=O)Nc1c(-c2ccc(-c3ccc(C4(C(=O)O)CC4)cc3)cc2)nn2ncccc12)c1ccccc1 [IT033]
pEC50 (Human LPA1 [1]): > 7.30 | pEC50 [2]: > 7.30 | pIC50 (Human LPA1 [3]): 6.30 to 7.30

Cc1nsc(C#Cc2cc3sc(C4(C(=O)O)CC4)cc3s2)c1NC(=O)O[C@H](C)c1ccccc1 [IT034]
pEC50 (Human LPA1 [1]): > 7.30 | pEC50 [2]: 6.30 to 7.30 | pIC50 (Human LPA1 [3]): 6.30 to 7.30

C[C@@H](OC(=O)Nc1c(C#Cc2ccc3cc(C4(C(=O)O)CC4)ccc3c2)sc2ncccc12)c1ccccc1 [IT035]
pEC50 (Human LPA1 [1]): > 7.30 | pEC50 [2]: 6.30 to 7.30 | pIC50 (Human LPA1 [3]): < 6.30

Cc1nsc(-c2ccc3cc(-c4ccc(C(=O)O)cc4)ccc3c2)c1NC(=O)O[C@H](C)c1ccccc1 [IT040]
pEC50 (Human LPA1 [1]): < 6.30 | pEC50 [2]: < 6.30 | pIC50 (Human LPA1 [3]): < 6.30

C[C@@H](OC(=O)Nc1c(-c2ccc(-c3ccc(C4(C(=O)O)CC4)cc3)cc2)nc2cccnn12)c1ccccc1 [IT041]
pEC50 (Human LPA1 [1]): < 6.30 | pEC50 [2]: < 6.30 | pIC50 (Human LPA1 [3]): 6.30 to 7.30

C[C@@H](OC(=O)Nc1c(-c2ccc(-c3ccc(C4(C(=O)O)CC4)cc3)cc2)nc2ncccn12)c1ccccc1 [IT043]
pEC50 (Human LPA1 [1]): > 7.30 | pEC50 [2]: 6.30 to 7.30 | pIC50 (Human LPA1 [3]): 6.30 to 7.30

Cc1nsc(-c2ccc(-c3cc4sc(C5(C(=O)O)CC5)cc4s3)cc2)c1NC(=O)O[C@H](C)c1ccccc1 [IT046]
pEC50 (Human LPA1 [1]): > 7.30 | pEC50 [2]: 6.30 to 7.30 | pIC50 (Human LPA1 [3]): < 6.30

Cc1noc(C#Cc2cc3sc(C4(C(=O)O)CC4)cc3s2)c1NC(=O)O[C@H](C)c1ccccc1Cl [IT047]
pEC50 (Human LPA1 [1]): > 7.30 | pEC50 [2]: > 7.30 | pIC50 (Human LPA1 [3]): 6.30 to 7.30

Cc1noc(C#Cc2cc3sc(C4(C(=O)O)CC4)cc3s2)c1NC(=O)OCc1ccccc1 [IT048]
pEC50 (Human LPA1 [1]): > 7.30 | pEC50 [2]: 6.30 to 7.30 | pIC50 (Human LPA1 [3]): > 7.30

C[C@@H](OC(=O)Nc1c(-c2ccc(-c3cc4sc(C5(C(=O)O)CC5)cc4s3)cc2)nnn1C)c1ccccc1 [IT050]
pEC50 (Human LPA1 [1]): > 7.30 | pEC50 [2]: 6.30 to 7.30 | pIC50 (Human LPA1 [3]): 6.30 to 7.30

Cc1nnn(-c2ccc(-c3cc4sc(C5(C(=O)O)CC5)cc4s3)cc2)c1NC(=O)O[C@H](C)c1ccccc1 [IT051]
pEC50 (Human LPA1 [1]): 6.30 to 7.30 | pEC50 [2]: 6.30 to 7.30 | pIC50 (Human LPA1 [3]): 6.30 to 7.30

C[C@@H](OC(=O)Nc1c(-c2ccc(-c3cc4sc(C5(C(=O)O)CC5)cc4s3)cc2)cnn1C)c1ccccc1 [IT056]
pEC50 (Human LPA1 [1]): > 7.30 | pEC50 [2]: 6.30 to 7.30 | pIC50 (Human LPA1 [3]): 6.30 to 7.30

C[C@@H](OC(=O)Nc1c(-c2cc(F)c(-c3ccc(C4(C(=O)O)CC4)cc3)cc2F)nn2ncccc12)c1ccccc1 [IT061]
pEC50 (Human LPA1 [1]): > 7.30 | pEC50 [2]: 6.30 to 7.30 | pIC50 (Human LPA1 [3]): > 7.30

C[C@@H](OC(=O)Nc1c(C#Cc2ccc3cc(C4(C(=O)O)CC4)ccc3c2)nnn1C)c1ccccc1 [IT064]
pEC50 (Human LPA1 [1]): > 7.30 | pEC50 [2]: 6.30 to 7.30 | pIC50 (Human LPA1 [3]): > 7.30

C[C@@H](OC(=O)Nc1c(C2CCC(c3ccc(C4(C(=O)O)CC4)cc3)CC2)cnn1C)c1ccccc1 (stereo partly drawn) [IT066]
pEC50 (Human LPA1 [1]): 6.30 to 7.30 | pEC50 [2]: < 6.30 | pIC50 (Human LPA1 [3]): 6.30 to 7.30

Cc1nnn(-c2cc(F)c(-c3cc4sc(C5(C(=O)O)CC5)cc4s3)cc2F)c1NC(=O)O[C@H](C)c1ccccc1 [IT067]
pEC50 (Human LPA1 [1]): 6.30 to 7.30 | pEC50 [2]: < 6.30 | pIC50 (Human LPA1 [3]): 6.30 to 7.30

C[C@@H](OC(=O)Nc1c(C#Cc2cc3sc(C4(C(=O)O)CC4)cc3s2)nnn1C)c1ccccc1 [IT069]
pEC50 (Human LPA1 [1]): > 7.30 | pEC50 [2]: 6.30 to 7.30 | pIC50 (Human LPA1 [3]): > 7.30

CCn1ncc(C#Cc2cc3sc(C4(C(=O)O)CC4)cc3s2)c1NC(=O)O[C@H](C)c1ccccc1 [IT070]
pEC50 (Human LPA1 [1]): > 7.30 | pEC50 [2]: > 7.30 | pIC50 (Human LPA1 [3]): > 7.30

C[C@@H](OC(=O)Nc1c(-c2cc(F)c(-c3cc4sc(C5(C(=O)O)CC5)cc4s3)cc2F)nnn1C)c1ccccc1 [IT071]
pEC50 (Human LPA1 [1]): > 7.30 | pEC50 [2]: 6.30 to 7.30 | pIC50 (Human LPA1 [3]): 6.30 to 7.30

C[C@@H](OC(=O)Nc1c(C#Cc2cc3sc(C4(C(=O)O)CC4)cc3s2)nn2ccccc12)c1ccccc1 [IT073]
pEC50 (Human LPA1 [1]): 6.30 to 7.30 | pEC50 [2]: 6.30 to 7.30 | pIC50 (Human LPA1 [3]): > 7.30

C[C@@H](OC(=O)Nc1c(CCc2cc3sc(C4(C(=O)O)CC4)cc3s2)cnn1C)c1ccccc1 [IT099]
pEC50 (Human LPA1 [1]): 6.30 to 7.30 | pEC50 [2]: < 6.30 | pIC50 (Human LPA1 [3]): < 6.30
